{
  "source": "patent US10800816B2",
  "about": "(Baxalta GmbH, priority 2012, dated 2020)",
  "key": {"[1]": {"test_system": "Tissue Factor Pathway Inhibitor (TFPI)", "experiment": "IC50 ELISA | Mean IC50 [nM]"}, "[2]": {"test_system": "Tissue Factor Pathway Inhibitor (TFPI)", "experiment": "IC50 ELISA | IC50 [nM]", "from_the_text": "Table printed on a drawing sheet, FIGURE 78Q\n(§1) Head of the field: IC50 ELISA | IC50 [nM]"}, "[3]": {"test_system": "Tissue Factor Pathway Inhibitor (TFPI)", "experiment": "IC50 ELISA | IC50 [nM]", "from_the_text": "Table printed on a drawing sheet, FIGURE 78E\nas §1", "remark": "listed apart in the source"}, "FIGURE 78W": {"experiment": "FIGURE 78W", "from_the_text": "Table printed on a drawing sheet, FIGURE 78W"}, "[4]": {"test_system": "Tissue Factor Pathway Inhibitor (TFPI)", "experiment": "IC50 ELISA | IC50 [nM]", "from_the_text": "Table printed on a drawing sheet, FIGURE 78G\nas §1", "remark": "listed apart in the source"}, "TFPI [5]": {"test_system": "TFPI", "experiment": "Progress Curves of Inhibition of FXa | % Inhibit (2.5µM)", "method": "Head of the field: Progress Curves of Inhibition of FXa | % Inhibit (2.5µM)\n“*” denotes negative controls."}, "TFPI [6]": {"test_system": "TFPI", "settings": "read-out: IC50 Mean"}, "[7]": {"test_system": "Tissue Factor Pathway Inhibitor (TFPI)", "experiment": "IC50 ELISA | Mean IC50 [nM]", "remark": "listed apart in the source"}, "TFPI [8]": {"test_system": "TFPI", "experiment": "Extrinsic Tenase Inhibition assay | % Inhibition @ 2.5µM"}, "TFPI [9]": {"test_system": "TFPI", "experiment": "IC50 ELISA | Mean IC50 [nM]"}, "TFPI [10]": {"test_system": "TFPI", "experiment": "Progress Curves of Inhibition of FXa | % Inhibit (2.5μM)", "method": "Head of the field: Progress Curves of Inhibition of FXa | % Inhibit (2.5μM)"}, "TFPI [11]": {"test_system": "TFPI", "experiment": "Extrinsic Tenase Inhibition by TFPI | % Inhibit (2.5μM )"}, "TFPI [12]": {"test_system": "TFPI", "experiment": "Extrinsic Tenase Inhibition assay | % Inhibition @ 2.5μM"}, "[13]": {"test_system": "Tissue Factor Pathway Inhibitor (TFPI)", "experiment": "IC50 ELISA | Mean IC50 [nM]", "remark": "listed apart in the source"}, "[14]": {"test_system": "Tissue Factor Pathway Inhibitor (TFPI)", "experiment": "IC50 ELISA | Mean IC50 [nM]", "from_the_text": "Table printed on a drawing sheet, FIGURE 78V\nHead of the field: IC50 ELISA | Mean IC50 [nM]", "remark": "listed apart in the source"}, "[15]": {"test_system": "Tissue Factor Pathway Inhibitor (TFPI)", "experiment": "IC50 ELISA | IC50 [nM]", "from_the_text": "Table printed on a drawing sheet, FIGURE 78R\nas §1", "remark": "listed apart in the source"}},
  "note": "Read-outs that look alike come from different tables or passages of the source. Where a SMILES comes first, the peptide text is derived from it. Bridges are numbered along the chain shown (N, C = ends). [ ]: non-standard residue; d: D form. Tle = CC(C)(C)[C@H](N)C(=O)O; Aib = CC(C)(N)C(=O)O",
  "data": [
    {"compound": "FAM-Ttds-FQSK-Nmg-NVFVDGYFERL-Aib-AKL-NH2 [JBT00002262]", "values": [
      {"measurement": "IC50", "setting": "[1]", "result": 13.4, "unit": "nM"}
    ]},
    {"compound": "Ac-FQVH-Tle-DGYFERL-Aib-AKL-NH2 [JBT00002428]", "values": [
      {"measurement": "IC50", "setting": "[2]", "result": "> 500", "unit": "nM"}
    ]},
    {"compound": "Ac-FQSKKNVFV-NH2 [JBT00002258]", "values": [
      {"measurement": "IC50", "setting": "[3]", "result": "> 5000", "unit": "nM"}
    ]},
    {"compound": "Ac-FQSKpNVHVPcYF-Hcy-RL-Aib-AKL-NH2 [JBT00002499]", "values": [
      {"measurement": "24 h Human Plasma Stability | Mean Remaining [%]", "setting": "FIGURE 78W", "result": 40.70, "unit": "%"}
    ]},
    {"compound": "Ac-FQSKp-Nmn-VHVDGYFERL-Aib-AKL-NH2 [JBT00002287]", "values": [
      {"measurement": "IC50", "setting": "[4]", "result": "> 500", "unit": "nM"}
    ]},
    {"compound": "Ac- KKLTGDWTYFWSKVIWGPGVIERQMPVSTFH KK-NH2 (SEQ ID NO: 3065) (Ac-KKLTGDWTYFWSKVIWGPGVIERQMPVSTFHKK-NH2) [JBT0177*]", "values": [
      {"measurement": "Progress Curves of Inhibition of FXa | % Inhibit ([…])", "setting": "TFPI [5]", "result": 4, "unit": "%"}
    ]},
    {"compound": "Ac-FQSKGNVFVTGYFDRLRAKL-NH2 [JBT0775 | 69]", "values": [
      {"measurement": "IC50", "setting": "TFPI [6]", "result": 22, "unit": "nM"}
    ]},
    {"compound": "Ac-FQSKp-C(NEM)-VH-Tle-DaY-Bta-ERL-Aib-AKL-NH2 [JBT00002502]", "values": [
      {"measurement": "IC50", "setting": "[7]", "result": 3.89, "unit": "nM"}
    ]},
    {"compound": "Ac-SRYKWFGMR[CDMKGC]TMSVWVKF-NH2 (SEQ ID NO: 1162) (Ac-SRYKWFGMRCDMKGCTMSVWVKF-NH2; disulfide 10-15; SMILES CSCC[C@H](NC(=O)CNC(=O)[C@H](Cc1ccccc1)NC(=O)[C@H](Cc1c[nH]c2ccccc12)NC(=O)[C@H](CCCCN)NC(=O)[C@H](Cc1ccc(O)cc1)NC(=O)[C@H](CCCNC(=N)N)NC(=O)[C@H](CO)NC(C)=O)C(=O)N[C@@H](CCCNC(=N)N)C(=O)N[C@H]1CSSC[C@@H](C(=O)N[C@H](C(=O)N[C@@H](CCSC)C(=O)N[C@@H](CO)C(=O)N[C@H](C(=O)N[C@@H](Cc2c[nH]c3ccccc23)C(=O)N[C@H](C(=O)N[C@@H](CCCCN)C(=O)N[C@@H](Cc2ccccc2)C(N)=O)C(C)C)C(C)C)[C@@H](C)O)NC(=O)CNC(=O)[C@H](CCCCN)NC(=O)[C@H](CCSC)NC(=O)[C@H](CC(=O)O)NC1=O) [JBT0470]", "values": [
      {"measurement": "Extrinsic Tenase Inhibition assay | % Inhibition @ […]", "setting": "TFPI [8]", "result": 2, "unit": "%"}
    ]},
    {"compound": "Ac-FQSK-Nmg-NVFVTGYFERL-Aib-AKL-NH2 [JBT00001585]", "values": [
      {"measurement": "IC50", "setting": "TFPI [9]", "result": 15.1, "unit": "nM"}
    ]},
    {"compound": "Ac- KKPLAVQLHVSKRSKEMALARLYYKTSKK- NH2 (SEQ ID NO: 2129) (Ac-KKPLAVQLHVSKRSKEMALARLYYKTSKK-NH2) [JBT0229]", "values": [
      {"measurement": "Progress Curves of Inhibition of FXa | % Inhibit ([…])", "setting": "TFPI [10]", "result": 0, "unit": "%"},
      {"measurement": "Extrinsic Tenase Inhibition by TFPI | % Inhibit ([…])", "setting": "TFPI [11]", "result": 0, "unit": "%"}
    ]},
    {"compound": "Ac-FQSKGNVFVDGYFERL-Aib-AKLC(PEG)-NH2 [JBT00001855]", "values": [
      {"measurement": "IC50", "setting": "TFPI [9]", "result": 121, "unit": "nM"}
    ]},
    {"compound": "Ac-SRYKWF[CGMADMKGTMSC]VWVKF-NH2 (SEQ ID NO: 1079) (Ac-SRYKWFCGMADMKGTMSCVWVKF-NH2; disulfide 7-18; SMILES CSCC[C@@H]1NC(=O)CNC(=O)[C@@H](NC(=O)[C@H](Cc2ccccc2)NC(=O)[C@H](Cc2c[nH]c3ccccc23)NC(=O)[C@H](CCCCN)NC(=O)[C@H](Cc2ccc(O)cc2)NC(=O)[C@H](CCCNC(=N)N)NC(=O)[C@H](CO)NC(C)=O)CSSC[C@@H](C(=O)N[C@H](C(=O)N[C@@H](Cc2c[nH]c3ccccc23)C(=O)N[C@H](C(=O)N[C@@H](CCCCN)C(=O)N[C@@H](Cc2ccccc2)C(N)=O)C(C)C)C(C)C)NC(=O)[C@H](CO)NC(=O)[C@H](CCSC)NC(=O)[C@H]([C@@H](C)O)NC(=O)CNC(=O)[C@H](CCCCN)NC(=O)[C@H](CCSC)NC(=O)[C@H](CC(=O)O)NC(=O)[C@H](C)NC1=O) [JBT0446]", "values": [
      {"measurement": "Extrinsic Tenase Inhibition assay | % Inhibition @ […]", "setting": "TFPI [12]", "result": 46, "unit": "%"}
    ]},
    {"compound": "Ac-FQSKpNVH-Tle-DGYFERL-Aib-A-Nmk-L-NH2 [JBT00002425]", "values": [
      {"measurement": "IC50", "setting": "[2]", "result": "> 500", "unit": "nM"}
    ]},
    {"compound": "Ac-FQSKpNVHVDGYFERL-Aib-AKLC(ME-50MA)-NH2 [JBT00002325]", "values": [
      {"measurement": "IC50", "setting": "[13]", "result": 6.6, "unit": "nM"}
    ]},
    {"compound": "CC(=O)N[C@@H](Cc1ccccc1)C(=O)N[C@@H](CCC(N)=O)C(=O)N[C@@H](CO)C(=O)N[C@@H](CCCCN)C(=O)N1CCC[C@@H]1C(=O)N[C@@H](CC(N)=O)C(=O)N[C@H](C(=O)N[C@@H](Cc1c[nH]cn1)C(=O)N[C@H](C(=O)N[C@@H](CC(=O)O)C(=O)N[C@@H]1CSSC[C@@H](C(=O)N[C@@H](CCCNC(=N)N)C(=O)N[C@@H](CC(C)C)C(=O)NC(C)(C)C(=O)N[C@@H](C)C(=O)N[C@@H](CCCCN)C(=O)N[C@@H](CC(C)C)C(N)=O)NC(=O)[C@H](Cc2ccccc2)NC(=O)[C@H](Cc2ccc(O)cc2)NC1=O)C(C)(C)C)C(C)C", "note": "[JBT00002495, Ac-FQSKpNVH-Tle-D[cYFC]RL-Aib-AKL-NH2] (Ac-FQSK[dP]NVH[Tle]D[dC]YFCRL[Aib]AKL-NH2; disulfide 11-14)", "values": [
      {"measurement": "IC50", "setting": "[14]", "result": 3.36, "unit": "nM"}
    ]},
    {"compound": "Ac-FqVH-Tle-DGYFERL-Aib-AKL-NH2 [JBT00002429]", "values": [
      {"measurement": "IC50", "setting": "[15]", "result": "> 500", "unit": "nM"}
    ]}
  ]
}
